This passage reports kONOO-, kred and k cat results from ChEMBL document CHEMBL1129224, “Rapid decomposition of peroxynitrite by manganese porphyrin-antioxidant redox couples” (Bioorg Med Chem Lett, 1997).

Assay type in all cases: ADME
Data set [1] is described as follows: The compound was evaluated for the apparent first-order rate of reaction of ONOO- with antioxidant.
The nature of data set [2]: The compound was evaluated for the rate of oxoMn (IV) reduction.
The nature of data set [3]: The compound was evaluated for the apparent first-order rate of reaction of ONOO- with antioxidant in presence of catalyst.

Take `O=C1O[C@H]([C@@H](O)CO)C(O)=C1O` [ASCORBIC ACID]: the kONOO- in data set [1] is 88 M⁻¹ s⁻¹. Besides, the kred in data set [2] stood at 54000000 M⁻¹ s⁻¹. The k cat in data set [3] was determined as 2200000 M⁻¹ s⁻¹.
On the same counts, the results for `N[C@@H](CCC(=O)N[C@@H](CS)C(=O)NCC(=O)O)C(=O)O` [GLUTATHIONE] are 580 M⁻¹ s⁻¹, 130000 M⁻¹ s⁻¹ and 3200000 M⁻¹ s⁻¹.
For `Cc1c(C)c2c(c(C)c1O)CCC(C)(C(=O)O)O2` (centres undefined) [TROLOX], the kONOO- in data set [1] is 33 M⁻¹ s⁻¹. For the same molecule, the kred in data set [2] was 7000000 M⁻¹ s⁻¹. Also, the k cat in data set [3] was found to be 1100000 M⁻¹ s⁻¹.
